PMC6402191 (Clinical and Translational Science, 2017)
Values joined by “and” are separate entries in the source; they are usually repeats but may differ in a detail not shown here. Equal values may be shown once.

Tests used:
OAT3 = target: T1, OAT3 (Homo sapiens, UniProt Q8TCC7); assay: Uptake of baricitinib into OAT3-transfected HEK-PEAK cells; type: in vitro ADME
T1 sequence (Q8TCC7 1-542): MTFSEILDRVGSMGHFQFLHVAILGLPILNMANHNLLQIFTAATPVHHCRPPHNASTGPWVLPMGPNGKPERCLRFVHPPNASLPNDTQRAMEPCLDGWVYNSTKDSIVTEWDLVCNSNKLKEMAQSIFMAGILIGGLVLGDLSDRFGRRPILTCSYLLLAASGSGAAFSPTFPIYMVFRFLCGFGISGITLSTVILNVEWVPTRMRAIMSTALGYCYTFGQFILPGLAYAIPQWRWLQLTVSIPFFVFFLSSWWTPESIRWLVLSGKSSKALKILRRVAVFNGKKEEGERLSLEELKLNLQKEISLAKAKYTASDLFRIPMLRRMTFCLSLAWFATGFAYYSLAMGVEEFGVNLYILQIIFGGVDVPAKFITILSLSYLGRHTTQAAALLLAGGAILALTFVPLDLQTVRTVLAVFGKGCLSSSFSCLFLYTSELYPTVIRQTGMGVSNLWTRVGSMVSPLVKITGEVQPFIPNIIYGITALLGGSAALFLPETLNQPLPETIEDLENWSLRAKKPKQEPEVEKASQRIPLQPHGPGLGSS

P-gp = P-gp (Homo sapiens, UniProt P08183); assay: Bidirectional transport of baricitinib in MDCK-MDR1 cells; type: in vitro ADME
P-gp, sequence (P08183 whole entry): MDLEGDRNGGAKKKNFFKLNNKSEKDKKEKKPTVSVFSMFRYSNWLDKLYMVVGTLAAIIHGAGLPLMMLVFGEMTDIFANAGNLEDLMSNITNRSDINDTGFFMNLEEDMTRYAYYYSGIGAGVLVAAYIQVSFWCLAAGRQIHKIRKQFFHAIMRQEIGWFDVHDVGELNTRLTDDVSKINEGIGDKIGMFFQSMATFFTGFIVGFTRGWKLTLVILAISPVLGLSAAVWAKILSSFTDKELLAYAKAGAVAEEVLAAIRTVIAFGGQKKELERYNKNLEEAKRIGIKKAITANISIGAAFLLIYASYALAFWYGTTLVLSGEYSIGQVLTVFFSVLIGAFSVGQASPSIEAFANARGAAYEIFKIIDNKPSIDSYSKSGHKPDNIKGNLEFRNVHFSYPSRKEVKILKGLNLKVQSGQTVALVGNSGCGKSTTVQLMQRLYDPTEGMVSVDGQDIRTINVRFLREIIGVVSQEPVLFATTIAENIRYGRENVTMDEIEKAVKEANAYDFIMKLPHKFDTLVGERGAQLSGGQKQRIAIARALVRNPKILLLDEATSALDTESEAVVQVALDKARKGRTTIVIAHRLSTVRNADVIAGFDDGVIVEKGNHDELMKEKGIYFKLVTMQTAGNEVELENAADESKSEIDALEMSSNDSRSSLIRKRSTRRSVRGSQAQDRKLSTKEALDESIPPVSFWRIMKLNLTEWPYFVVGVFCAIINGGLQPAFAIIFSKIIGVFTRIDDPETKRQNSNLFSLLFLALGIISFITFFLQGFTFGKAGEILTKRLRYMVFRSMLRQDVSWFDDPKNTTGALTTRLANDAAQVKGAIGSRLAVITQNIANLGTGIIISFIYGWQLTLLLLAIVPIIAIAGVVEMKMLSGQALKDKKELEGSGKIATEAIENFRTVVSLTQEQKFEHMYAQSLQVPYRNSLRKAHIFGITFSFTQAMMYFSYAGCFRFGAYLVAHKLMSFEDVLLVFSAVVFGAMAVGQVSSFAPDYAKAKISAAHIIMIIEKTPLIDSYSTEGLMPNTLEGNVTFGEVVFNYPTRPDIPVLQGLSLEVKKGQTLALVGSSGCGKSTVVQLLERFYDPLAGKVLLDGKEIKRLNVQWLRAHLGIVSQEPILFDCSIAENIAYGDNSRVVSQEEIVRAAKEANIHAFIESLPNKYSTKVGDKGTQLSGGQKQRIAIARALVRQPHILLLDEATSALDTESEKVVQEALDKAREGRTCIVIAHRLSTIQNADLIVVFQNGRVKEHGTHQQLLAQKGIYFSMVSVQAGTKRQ

BCRP = target: T2, BCRP (Homo sapiens, UniProt Q9UNQ0); assay: Bidirectional transport of baricitinib in MDCK-BCRP cells; type: in vitro ADME
T2 sequence (Q9UNQ0 1-655): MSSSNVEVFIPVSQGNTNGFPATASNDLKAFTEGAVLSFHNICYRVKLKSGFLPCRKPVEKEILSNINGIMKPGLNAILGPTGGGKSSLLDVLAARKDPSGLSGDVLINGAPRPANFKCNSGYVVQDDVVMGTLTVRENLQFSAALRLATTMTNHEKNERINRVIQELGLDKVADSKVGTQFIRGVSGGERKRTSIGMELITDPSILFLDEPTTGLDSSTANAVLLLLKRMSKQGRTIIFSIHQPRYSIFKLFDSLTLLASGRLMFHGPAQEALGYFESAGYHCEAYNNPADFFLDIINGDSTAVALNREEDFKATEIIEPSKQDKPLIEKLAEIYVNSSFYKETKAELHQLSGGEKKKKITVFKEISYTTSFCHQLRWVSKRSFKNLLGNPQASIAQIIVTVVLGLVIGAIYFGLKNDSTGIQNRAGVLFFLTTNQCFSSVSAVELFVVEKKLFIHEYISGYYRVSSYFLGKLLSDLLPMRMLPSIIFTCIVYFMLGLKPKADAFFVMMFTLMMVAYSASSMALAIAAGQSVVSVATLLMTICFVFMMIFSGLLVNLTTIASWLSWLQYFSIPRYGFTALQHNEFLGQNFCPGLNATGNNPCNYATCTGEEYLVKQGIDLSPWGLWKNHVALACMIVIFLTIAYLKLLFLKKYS

OCT2 = target: T3, OCT2 (Homo sapiens, UniProt O15244); assay: Baricitinib substrate study in OCT2-transfected HEK-PEAK cells; type: in vitro ADME
T3 sequence (O15244 1-555): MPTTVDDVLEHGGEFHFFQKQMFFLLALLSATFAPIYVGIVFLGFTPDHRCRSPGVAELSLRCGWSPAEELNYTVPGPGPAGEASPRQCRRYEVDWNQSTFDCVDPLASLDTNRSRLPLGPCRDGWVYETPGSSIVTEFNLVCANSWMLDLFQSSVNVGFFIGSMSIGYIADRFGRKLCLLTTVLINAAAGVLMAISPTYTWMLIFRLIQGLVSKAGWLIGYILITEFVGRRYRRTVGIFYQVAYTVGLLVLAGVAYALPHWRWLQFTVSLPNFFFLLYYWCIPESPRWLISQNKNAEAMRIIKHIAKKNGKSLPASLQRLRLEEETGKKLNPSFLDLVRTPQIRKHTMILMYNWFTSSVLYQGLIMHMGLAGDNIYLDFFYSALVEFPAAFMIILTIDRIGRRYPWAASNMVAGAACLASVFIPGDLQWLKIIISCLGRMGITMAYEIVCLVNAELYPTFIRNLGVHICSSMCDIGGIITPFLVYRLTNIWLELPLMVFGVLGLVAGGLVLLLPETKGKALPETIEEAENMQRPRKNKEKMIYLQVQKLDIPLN

OATP1B3 = target: T4, OATP1B3 (Homo sapiens, UniProt Q9NPD5); assay: Baricitinib substrate study in OATP1B3-transfected HEK-PEAK cells; type: in vitro ADME
T4 sequence (Q9NPD5 1-702): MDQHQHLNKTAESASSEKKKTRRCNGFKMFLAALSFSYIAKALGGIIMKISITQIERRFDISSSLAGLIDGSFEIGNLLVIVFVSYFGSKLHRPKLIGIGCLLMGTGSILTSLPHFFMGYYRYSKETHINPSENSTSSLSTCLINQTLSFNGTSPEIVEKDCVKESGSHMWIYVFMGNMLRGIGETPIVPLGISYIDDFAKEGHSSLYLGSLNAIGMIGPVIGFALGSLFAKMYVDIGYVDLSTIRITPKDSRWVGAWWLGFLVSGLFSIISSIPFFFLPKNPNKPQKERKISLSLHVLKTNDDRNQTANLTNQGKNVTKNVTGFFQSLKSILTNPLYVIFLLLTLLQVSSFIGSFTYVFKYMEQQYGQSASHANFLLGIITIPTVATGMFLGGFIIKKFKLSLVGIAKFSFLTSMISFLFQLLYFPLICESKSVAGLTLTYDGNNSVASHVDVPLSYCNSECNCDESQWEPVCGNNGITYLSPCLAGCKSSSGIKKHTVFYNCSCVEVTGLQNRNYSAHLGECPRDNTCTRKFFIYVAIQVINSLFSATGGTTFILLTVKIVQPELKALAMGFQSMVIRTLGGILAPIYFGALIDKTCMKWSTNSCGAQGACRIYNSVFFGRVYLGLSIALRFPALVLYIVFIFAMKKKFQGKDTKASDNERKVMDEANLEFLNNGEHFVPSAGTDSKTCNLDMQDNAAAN

[1] = Pharmacokinetic input parameters of the PBPK models; type: in vivo, human; conditions: fitted to match clinical data

With `CCS(=O)(=O)N1CC(CC#N)(n2cc(-c3ncnc4[nH]ccc34)cn2)C1` [Baricitinib] the OAT3 substrate (OAT3) was “substrate of OAT3”, the “Uptake into OAT3-transfected cells relative to control cells” value (OAT3; 1-min incubation) was “approximately double” and the “OAT3 Vmax” value (OAT3; PBPK input) was 70.76 pmol/min/10^6 cells. For the same molecule, the “OAT3 Vmax” value (OAT3; average of two experiments) was 176.9 pmol/min/mg protein, the “OAT3 Vmax (individual experiments)” value (OAT3; each of two separate experiments) was 164.3 ± 7.97 pmol/min/mg protein and 189.5 ± 27.10 pmol/min/mg protein and the P-gp substrate (P-gp) was “P‐gp substrate”. For the same molecule, the Papp at 5 μM (P-gp; dog, MDCK) was 6.6 ×10⁻⁶ cm/s, the Papp A→B at 5 µM (P-gp; dog, MDCK-MDR1) was 0.9 ×10⁻⁶ cm/s and the Papp B→A at 5 µM (P-gp; dog, MDCK-MDR1) was 35.2 ×10⁻⁶ cm/s. For the same molecule, the BCRP substrate (BCRP) was “substrate of BCRP”, the Papp A→B at 5 µM (BCRP; dog) was 0.83 ×10⁻⁶ cm/s and the Papp B→A at 5 µM (BCRP; dog) was 10.1 ×10⁻⁶ cm/s. For the same molecule, the OCT2 substrate (OCT2) was “not a substrate”, the OATP1B3 substrate (OATP1B3) was “not a substrate” and the “ka (first-order absorption rate constant)” value [1] was 1.2 h^‐1.
